Test results taken from publication PMC7226045, “Ensartinib (X-396) Effectively Modulates Pharmacokinetic Resistance Mediated by ABCB1 and ABCG2 Drug Efflux Transporters and CYP3A4 Biotransformation Enzyme” (Cancers, 2020).
Like-named read-outs stand apart in the source and are kept apart here.

Legend:
CYP3A5 = biological target: T1, CYP3A5 (Homo sapiens, UniProt P20815); experiment: Vivid CYP screening kit, recombinant CYP3A5; type: biochemical; conditions: recombinant enzyme, 15 min incubation, absolute IC50; read-out: CYP3A5 inhibition IC50
T1 construct: purchased Thermo Fisher Scientific; host or cells: insect microsomal fractions
Procedure: CYP inhibitory assay was performed as described previously. Experiments were performed with commercial Vivid CYP screening kits containing insect microsomal fractions enriched with a specific human CYP isoform, human CYP reductase, and in some cases, human cytochrome b5. The potential inhibitory activity of ensartinib toward CYP1A2, CYP2B6, CYP2C8, CYP2C9, CYP2C19, CYP2D6, CYP3A4, and CYP3A5 (i.e., all CYP isoforms that drug regulatory authorities recommend for testing of inhibition by new molecular entities) was then examined. Experiments were performed using a kinetic mode in black 96-well plates according to the manufacturer´s instructions. Briefly, 5-point serial dilutions of ensartinib or the model inhibitor recommended by the manufacturer in buffer were transferred into the wells, then a master mix consisting of a CYP isoenzyme with an NADPH regeneration system in buffer was added. After a 10 min pre-incubation, the reaction was initiated by adding a mixture of NADP^+ and the appropriate Vivid substrate, after which fluorescence was measured at 1 min intervals for 60 min using an Infinite M200 Pro microplate reader (Tecan, Männedorf, Switzerland). The enzyme concentration and incubation interval used for data evaluation (15 min) placed the systems within the linear regions of the appropriate reaction velocity curves. […]

HL60-parent cells = experiment: XTT proliferation / drug combination assay, HL60-parent; type: cell-based, human
Procedure: Briefly, HL60-par, HL60-ABCB1, HL60-ABCG2, and HL60-ABCC1 cells were seeded at 2 × 10^4 cells/well in 96-well culture plates. Immediately after seeding, dilutions of the tested drugs or drug combinations were added to the cells. The plates were then incubated under standard conditions (37 °C, 5% CO2) for 48 h, after which XTT solution in PBS (1 mg/mL) and phenazine methosulfate (7.50 µg/mL) were added to the cells and the plates were incubated for another 5 h. Finally, the cells’ absorbance was measured at 450 nm using a microplate reader (Infinite M200, Tecan, Salzburg, Austria). This method was used to assess the effect of ABC transporters on sensitivity to ensartinib and in drug combination assays.
The parent MDCKII and HL60 cells and their ABCB1-, ABCG2-, and ABCC1-overexpressing counterparts were seeded at the densities specified above onto 96-well culture plates and cultured for 24 h. The medium was subsequently replaced with serial dilutions of ensartinib alone or with various concentrations of a model MDR-susceptible cytostatic agent (daunorubicin or mitoxantrone) with or without 10 µM ensartinib. After 48 h incubation, the cells’ viability was determined as described above. In addition to performing IC50-shift analyses, the viability measurements were converted to FA (fraction of cells affected) values and the effects of drug combinations were quantified using the Chou-Talalay combination index (CI) method as implemented in CompuSyn 3.0.1 (ComboSyn Inc., Paramus, NJ, USA). The effects of concomitantly administered drugs were classified as synergistic (CI < 0.9), additive (0.9 < CI < 1.1), or antagonistic (CI > 1.1) based on the computed CI values [57].

[1] = MTT proliferation assay, A431-ABCG2; type: cell-based; conditions: human, A431-ABCG2 cells, read-out: IC50, sensitivity to ensartinib
Procedure: (§1) MTT proliferation assay was performed as described previously.

HepG2-EV cells = experiment: Docetaxel combination assay (MTT), HepG2-EV; type: cell-based, human; conditions: 1 µM docetaxel, <0% antagonism, =0% additivity, >0% synergism
Procedure: as §1
Cell viability was measured after a 48 h incubation using the MTT method as described above. […] Sensitization effects of < 0%, 0%, and >0% indicate antagonism, additivity, and synergism, respectively.

ABCB1 = biological target: T2, ABCB1 (Homo sapiens, UniProt P08183); experiment: MDCKII monolayer transport assay, MDCKII-ABCB1; type: in vitro ADME; conditions: dog
T2 construct: expressed in transfected cells; host or cells: MDCKII-ABCB1 (from Dr. Alfred Schinkel, The Netherlands Cancer Institute)
Procedure: Transport assays were performed on microporous polycarbonate membrane filters (3 µm pore size, 24 mm diameter, Transwell 3414; Costar, Corning, NY, USA) using MDCKII parental as well as ABCB1-, ABCG2-, and ABCC1-overexpressing MDCKII cells. The cells were seeded at a density of 1.5 × 10^6 cells per insert and cultured to full confluence for 7 days with media exchanges on the second and fourth days. Before the start of the transport experiments, inserts were washed with 1 × PBS on both the apical and basal sides. The cells were then preincubated in Opti-MEM with or without model inhibitors (1 µM LY335979, 1 µM Ko143, or 25 µM MK-571). […] Ensartinib levels in samples were measured by UHPLC-MS/MS (see below). […]
Samples from the monolayer transport assays (10 µL) were mixed with 100 µL of acetonitrile and 100 µL of methanol, vortexed for 15 min, and centrifuged at 14,500 rpm for 3 min. […] The MS source parameters were set to the following: drying gas, 320 °C, flow rate 10 l/min; sheath gas, 400 °C at 12 l/min; nebulizer pressure 25 psi; capillary voltage 4000 V; nozzle voltage 0 V. Transitions of [M+H]^+ ions were detected using a dwell time of 150 ms, a cell acceleration of 4 V, and fragmentor voltages of 137 V for 547→357, 257 and 120 transitions (corresponding to collision energies of 16, 32, and 56 V).

[2] = set-up: method as in doi:10.1200/JCO.2018.36.15_suppl.e21122; conditions: in vivo pharmacokinetic studies in humans (patients); cited from earlier work

T2 sequence (P08183 whole entry): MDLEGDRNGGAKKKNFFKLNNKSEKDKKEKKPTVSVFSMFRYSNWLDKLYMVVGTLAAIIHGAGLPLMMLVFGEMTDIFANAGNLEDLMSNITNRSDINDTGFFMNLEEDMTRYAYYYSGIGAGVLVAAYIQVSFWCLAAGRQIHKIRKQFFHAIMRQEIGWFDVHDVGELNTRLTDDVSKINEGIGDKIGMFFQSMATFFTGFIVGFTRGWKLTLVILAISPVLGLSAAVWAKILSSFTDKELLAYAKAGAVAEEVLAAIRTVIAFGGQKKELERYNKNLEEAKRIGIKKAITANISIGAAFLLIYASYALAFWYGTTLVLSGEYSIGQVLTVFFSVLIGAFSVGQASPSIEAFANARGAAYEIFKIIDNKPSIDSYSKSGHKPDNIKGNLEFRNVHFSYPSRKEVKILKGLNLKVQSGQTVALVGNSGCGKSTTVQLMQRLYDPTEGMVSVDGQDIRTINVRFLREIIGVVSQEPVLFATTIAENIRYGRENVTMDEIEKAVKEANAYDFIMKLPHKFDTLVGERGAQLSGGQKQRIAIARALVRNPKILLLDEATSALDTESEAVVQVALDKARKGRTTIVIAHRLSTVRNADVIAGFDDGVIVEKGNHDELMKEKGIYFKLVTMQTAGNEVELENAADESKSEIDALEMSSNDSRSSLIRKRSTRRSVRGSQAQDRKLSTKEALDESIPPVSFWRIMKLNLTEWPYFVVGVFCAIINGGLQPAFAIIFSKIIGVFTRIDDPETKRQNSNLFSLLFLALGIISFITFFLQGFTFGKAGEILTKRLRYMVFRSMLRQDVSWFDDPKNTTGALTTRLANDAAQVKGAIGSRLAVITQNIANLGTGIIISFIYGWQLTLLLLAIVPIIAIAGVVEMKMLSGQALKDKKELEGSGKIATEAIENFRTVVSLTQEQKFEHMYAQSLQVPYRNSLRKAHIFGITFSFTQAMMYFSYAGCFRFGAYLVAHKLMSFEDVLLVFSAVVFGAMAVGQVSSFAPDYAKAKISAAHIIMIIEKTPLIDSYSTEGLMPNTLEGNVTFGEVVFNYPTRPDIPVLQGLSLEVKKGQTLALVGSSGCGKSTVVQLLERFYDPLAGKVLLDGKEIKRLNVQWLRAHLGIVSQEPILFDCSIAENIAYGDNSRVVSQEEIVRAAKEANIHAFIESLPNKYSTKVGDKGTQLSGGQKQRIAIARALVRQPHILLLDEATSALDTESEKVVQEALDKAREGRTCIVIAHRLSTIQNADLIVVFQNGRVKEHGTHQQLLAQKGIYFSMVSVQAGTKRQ
T1 sequence (P20815 whole entry): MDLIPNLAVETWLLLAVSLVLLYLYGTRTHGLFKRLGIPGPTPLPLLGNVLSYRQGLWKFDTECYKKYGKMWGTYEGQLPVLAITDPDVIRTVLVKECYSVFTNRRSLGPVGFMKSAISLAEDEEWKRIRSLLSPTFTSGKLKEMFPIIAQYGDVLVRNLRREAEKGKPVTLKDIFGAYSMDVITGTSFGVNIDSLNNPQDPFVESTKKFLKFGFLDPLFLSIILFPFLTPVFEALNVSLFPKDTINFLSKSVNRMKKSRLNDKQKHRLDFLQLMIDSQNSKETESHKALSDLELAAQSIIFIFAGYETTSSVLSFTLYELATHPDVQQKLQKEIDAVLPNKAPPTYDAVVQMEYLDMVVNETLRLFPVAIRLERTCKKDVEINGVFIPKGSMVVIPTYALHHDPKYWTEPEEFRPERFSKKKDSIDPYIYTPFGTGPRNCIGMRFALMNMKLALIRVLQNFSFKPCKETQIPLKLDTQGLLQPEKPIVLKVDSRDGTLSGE

IC50 (CYP3A5): 19.1 µM | IC50 (HL60-parent cells; Homo sapiens, HL60-parent, 48 h, XTT, read-out: IC50, sensitivity to ensartinib): 31.9 µM | efflux ratio at 4 h, 1 µM (ABCB1; MDCK-MDR1, 1 µM ensartinib, read-out: transport ratio (r), BA/AB): 15.6 | efflux ratio at 4 h, 1 µM (ABCB1; MDCK-MDR1, with LY335979, 1 µM ensartinib + 1 µM LY335979, read-out: transport ratio (r), BA/AB, with ABCB1 inhibitor): 1.05
SMILES: C[C@@H]1CN(C(=O)c2ccc(NC(=O)c3cc(O[C@H](C)c4c(Cl)ccc(F)c4Cl)c(N)nn3)cc2)C[C@H](C)N1 [ensartinib, Ensartinib]
combination effect (Chou-Talalay combination index) (HL60-parent cells; HL60 parental, 10 µM ensartinib with daunorubicin or mitoxantrone, whole FA range): antagonistic or additive | IC50 at 48 h [1]: 2.26 µM | sensitization effect of combination with docetaxel (HepG2-EV cells): antagonistic | Cmax [2]: 1000 nM
